# Where a name gives a salt, the structure may show the parent alone. Read-outs that look alike come from different tables or passages of the source.
# Tests used:
# [1] = system: COX; conditions: non-selective COX assay; cited from earlier work
# [2] = One-liter scale stability study with or without Na2 EDTA, N2 overlay or sparge (Example 8); type: physicochemical; conditions: over six months
# [3] = Description: Thus, the final concentration of Na citrate was about 50 mM. Three cGMP registration lots of the formulation, each in three hundred liter volume, were manufactured and stored at temperatures of 5° C., 25° C., 30° C., or 40° C. for long-term stability evaluation. Aliquots were taken from each lot at intervals and analyzed for potency and presence of related substances. In addition, the lots were visually inspected for appearance and the pH was also monitored.
# Related substances (RS) were detected by HPLC.
# [4] = Formulation screening: storage stability, related substances by gradient HPLC (Examples 2-5); type: physicochemical; conditions: in the presence of 0.05% w/v Na2 EDTA versus none; up to thirty days
# Description: The stability of the active pharmaceutical ingredients was tested in acetate or citrate buffers. […] Chromatographic conditions for the related substances assay were as follows: (a) Detection wave length, UV 215 nm; (b) Column, Zorbax SB-C8, 5 μm, 4.6×250 mm; (c) Column temp, 30±1° C.; (d) Sample temp, Ambient; (e) Flow rate, 1.2 mL/min; (f) Injection volume, 20 μL; (g) Run Time, 30 minutes.
# F6 included 50 mM Na acetate buffer, pH 5.5; F7 included 50 mM Na citrate buffer, pH 5.5. […] Citric acid also has the ability to chelate divalent cations and can prevent oxidation, thus acting both as a buffering agent and an antioxidant.
# The Stability of the Active Pharmaceutical Ingredients was Tested in Buffers with varying pH values. […] Data not shown. Both formulations included 50 mM Na citrate buffer. F8 pH was 6.5 and F9 pH was 5.5.
# The stability of the active, pharmaceutical ingredients in liquid formulation was tested in the presence of N2 overlay and light protection. Two formulations, F10 and F11, were prepared and stored for up to 28 days under the conditions shown in FIG. 4A, i.e., with or without N2 overlay and light protection. […] F10 was prepared under protection from light and N2 overlay post-compounding and pre-filling of formulation into vials, while F11 was not.
# The effect of antioxidants on stability of the active pharmaceutical ingredients in liquid formulation was tested. […]
# [5] = biological target: human 5-HT1B and 5-HT1D receptors; conditions: range over human 5-HT1B and 5-HT1D receptors; cited from earlier work
# [6] = biological target: α1A- and α2A-adrenoceptors; conditions: range over α1A- and α2A-adrenoceptors; cited from earlier work
# [7] = biological target: 5-HT1B/1D receptor; conditions: human saphenous vein; read-out: IC50 (functional agonist); cited from earlier work
# [8] = biological target: non-human 5-HT1A, 5-HT1B and 5-HT1D receptors; conditions: range over non-human 5-HT1A; cited from earlier work
structure (smiles),measurement,setting,value
"CC(C(=O)O)c1cccc(C(=O)c2ccccc2)c1 (stereo not drawn) [Ketoprofen, ketoprofen]",IC50,[1],4 to 8 nM
"Cc1cc(C(C)(C)C)c(O)c(C)c1CC1=NCCN1 [Oxymetazoline HCl, oxymetazoline HCl]",related substances of the named API,[2],less than 1%
same,total RS %,[3]; stored at 30° C. and 40° C.,increased significantly
same,total RS %,[3]; two years at 5° C.,0.00%
same,total RS %,[3]; two years at 25° C.,about 0.15%
CN(C)CCC=C1c2ccccc2CCc2ccccc21 [amitriptyline HCl],chemical stability,[4],improved
same,related substances of the named API,[2],less than 5%
same,stability in the tested formulation,[3],stable
same,RS presence,[3]; 4° C.,present sporadically
same,percentage of RS over time,[3]; 25° C. and 30° C.,"increased over the first three months, and then was stable for up to two years"
same,percentage of RS over time,[3]; 40° C.,increased during the first month and then stabilized
Cc1cc(C(C)(C)C)c(O)c(C)c1CC1=NCCN1 [oxymetazoline],Ki,[5],0.3 to 0.4 nM
same,Ki,[6],3 to 6 nM
same,IC50,[7],30 nM
same,IC50,[8],3 to 26 nM
